These results are taken from ChEMBL document CHEMBL1201862, “PubChem BioAssay data set” (2004).

Among the test systems are NCI-H23; CAKI-1; SK-MEL-28; MDA-MB-231; MDA-MB-435; OVCAR-4; SNB-75; U-251; HCC 2998; Malme-3M; MCF7; ACHN; KM12; M14; A549; SK-OV-3; K562; SR; SN12C.
What all share (assay): NCI tumour cell line growth inhibition, 48 h

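Dose response: 5 concentrations. Exposure: 48 h. Format: 96-well plates. Endpoint: linear interpolation; highest concentration if not reached. GI50 is the concentration that inhibits growth by half.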 Active and inactive are the calls of the source. No stated cut-off is given here; in the data, active = GI50 up to about 1.1 µM and inactive = higher.

As for `O=C(c1ccccc1)c1c(C(F)(F)F)[n+]([O-])c2cc(F)c(F)cc2[n+]1[O-]`, the GI50 in the assay on NCI-H23 was 0.211 µM (active); with CAKI-1, 0.807 µM (active); in the assay with SK-MEL-28, 1.26 µM (inactive); in the assay with MDA-MB-231 it was 0.61 µM (active); with MDA-MB-435 it was 1.53 µM (inactive); in the assay on OVCAR-4 it was 2.07 µM (inactive). Besides, the GI50 in the assay with SNB-75 was 1.95 µM (inactive); in the assay with U-251, 0.377 µM (active); in the assay with HCC 2998 it was 0.589 µM (active); in the assay on Malme-3M, 0.161 µM (active); in the assay on MCF7, 0.349 µM (active); in the assay on ACHN, 0.0929 µM (active). In addition, the GI50 in the assay with KM12 is 1.07 µM (active); in the assay with M14 it was 0.698 µM (active); with A549, 2.95 µM (inactive); with SK-OV-3, 5.97 µM (inactive); with K562 it was 0.105 µM (active); in the assay on SR, < 0.01 µM (active).

Consider `COc1ccccc1C#C/C=C\C#Cc1ccccc1C#N`, for which the GI50 in the assay on NCI-H23 is 5.61 µM (inactive); with CAKI-1, 3.72 µM (inactive); in the assay on SK-MEL-28, 34.2 µM (inactive); in the assay on SN12C, 26 µM (inactive); in the assay with MDA-MB-435, 3.24 µM (inactive); in the assay with OVCAR-4, 96.8 µM (inactive). The GI50 is 28.7 µM (inactive) in the assay with SNB-75; 9.18 µM (inactive) in the assay with U-251; 6.19 µM (inactive) in the assay on HCC 2998; 9.98 µM (inactive) with Malme-3M; 4.61 µM (inactive) with MCF7; 13.9 µM (inactive) in the assay with ACHN. In addition, the GI50 with KM12 is 6.37 µM (inactive); in the assay on M14, 6.08 µM (inactive); in the assay with A549 it was 6.89 µM (inactive); with SK-OV-3, 39.8 µM (inactive); in the assay with K562 it was 3.68 µM (inactive); in the assay with SR, 4.08 µM (inactive).

Consider `CC1NOC(NS(=O)(=O)c2ccc(/N=N/c3c(O)c(C(=O)O)cc4ccccc34)cc2)C1C` (stereo unspecified), for which the GI50 with CAKI-1, in the assay with SK-MEL-28, in the assay with MDA-MB-231, in the assay with MDA-MB-435, in the assay with OVCAR-4 and in the assay with SNB-75 was > 100 µM (inactive) throughout. Further, the GI50 in the assay with U-251 is > 100 µM (inactive); in the assay with HCC 2998, > 100 µM (inactive); in the assay with Malme-3M, > 100 µM (inactive); with MCF7, > 100 µM (inactive); with ACHN, > 100 µM (inactive); in the assay on KM12, 57.8 µM (inactive). In addition, the GI50 in the assay with M14, in the assay on A549, with SK-OV-3, in the assay with K562 and in the assay with SR was > 100 µM (inactive) each time.

Regarding `C[Si](C)(C)/C=C/CN1C(=O)CCC1O` (stereo unspecified), the GI50 in the assay on NCI-H23, with CAKI-1, with SK-MEL-28, in the assay on SN12C, in the assay with OVCAR-4 and in the assay on SNB-75 was > 100 µM (inactive) in each case. The GI50 with U-251, in the assay with HCC 2998, in the assay with Malme-3M, in the assay with ACHN, in the assay on KM12 and with M14 was > 100 µM (inactive) in each case. The GI50 with A549, in the assay with SK-OV-3, with K562 and in the assay on SR was > 100 µM (inactive) throughout.

As to `O=C(CSc1nc2ccc(I)cc2c(=O)n1Cc1ccccc1)Nc1ccc(Br)cc1`, the GI50 was > 100 µM (inactive) in the assay with NCI-H23; 1.35 µM (inactive) in the assay with CAKI-1; 49.4 µM (inactive) with SK-MEL-28; 37.2 µM (inactive) in the assay with SN12C; 17.2 µM (inactive) in the assay with MDA-MB-231; > 100 µM (inactive) with MDA-MB-435. Also, the GI50 in the assay with OVCAR-4 was 34.7 µM (inactive); in the assay with SNB-75, 13.8 µM (inactive); with U-251, 39 µM (inactive); in the assay with Malme-3M it was 16.6 µM (inactive); in the assay with MCF7, > 100 µM (inactive); in the assay on ACHN, > 100 µM (inactive). In addition, the GI50 in the assay with KM12 was 78.7 µM (inactive); with M14, 56.5 µM (inactive); in the assay with A549, > 100 µM (inactive); in the assay on SK-OV-3 it was > 100 µM (inactive); in the assay on K562, 24.7 µM (inactive); in the assay on SR, 11.3 µM (inactive).

As to `c1cc2sc1CSCCSCCSC2`, the GI50 in the assay on NCI-H23, in the assay on SK-MEL-28, with SN12C, in the assay on MDA-MB-231, in the assay on MDA-MB-435 and in the assay with OVCAR-4 was > 100 µM (inactive) each time. Besides, the GI50 in the assay with SNB-75, in the assay with U-251, in the assay with HCC 2998, with MCF7, in the assay on KM12 and in the assay with M14 was > 100 µM (inactive) each time. The GI50 in the assay on A549, in the assay on SK-OV-3, in the assay with K562 and in the assay on SR was > 100 µM (inactive) throughout.

In the case of `FC(F)(F)c1cccc2ns[s+]c12`, the GI50 in the assay on NCI-H23, with CAKI-1, in the assay with SK-MEL-28, with SN12C, in the assay on OVCAR-4 and with SNB-75 was > 100 µM (inactive) throughout. Also, the GI50 in the assay with U-251, in the assay on HCC 2998, with Malme-3M, in the assay with ACHN, in the assay on KM12 and in the assay with M14 was > 100 µM (inactive) in each case. For the same compound, the GI50 in the assay on A549, in the assay with SK-OV-3, with K562 and with SR was > 100 µM (inactive) in each case.

Consider `CC1(C)C(O)C[C@]23CCC[C@](C)(C[C@@H](O)C12)C3` (stereo partly specified), for which the GI50 in the assay on NCI-H23, in the assay with CAKI-1, with SK-MEL-28, with SN12C, in the assay with MDA-MB-435 and in the assay on OVCAR-4 was > 100 µM (inactive) throughout. The GI50 in the assay on SNB-75, in the assay on U-251, in the assay on Malme-3M, in the assay with MCF7, with ACHN and in the assay on KM12 was > 100 µM (inactive) each time. Besides, the GI50 is > 100 µM (inactive) with M14; 38.2 µM (inactive) with A549; > 100 µM (inactive) in the assay with SK-OV-3; > 100 µM (inactive) in the assay with K562; > 100 µM (inactive) in the assay on SR.
